Assay results reported in US20230295200A1 (REGENTS OF THE UNIVERSITY OF MICHIGAN, priority 2022, published 2023).

molecular target: T1, STAT6 protein (Homo sapiens, UniProt P42226); assay: Fluorescence polarization (FP) binding assay, STAT6; conditions: FP competition, 5 nM fluorescein-labeled tracer, 200 nM protein, PBS pH7.4; read-out: Binding STAT6
T1 sequence (P42226 1-847): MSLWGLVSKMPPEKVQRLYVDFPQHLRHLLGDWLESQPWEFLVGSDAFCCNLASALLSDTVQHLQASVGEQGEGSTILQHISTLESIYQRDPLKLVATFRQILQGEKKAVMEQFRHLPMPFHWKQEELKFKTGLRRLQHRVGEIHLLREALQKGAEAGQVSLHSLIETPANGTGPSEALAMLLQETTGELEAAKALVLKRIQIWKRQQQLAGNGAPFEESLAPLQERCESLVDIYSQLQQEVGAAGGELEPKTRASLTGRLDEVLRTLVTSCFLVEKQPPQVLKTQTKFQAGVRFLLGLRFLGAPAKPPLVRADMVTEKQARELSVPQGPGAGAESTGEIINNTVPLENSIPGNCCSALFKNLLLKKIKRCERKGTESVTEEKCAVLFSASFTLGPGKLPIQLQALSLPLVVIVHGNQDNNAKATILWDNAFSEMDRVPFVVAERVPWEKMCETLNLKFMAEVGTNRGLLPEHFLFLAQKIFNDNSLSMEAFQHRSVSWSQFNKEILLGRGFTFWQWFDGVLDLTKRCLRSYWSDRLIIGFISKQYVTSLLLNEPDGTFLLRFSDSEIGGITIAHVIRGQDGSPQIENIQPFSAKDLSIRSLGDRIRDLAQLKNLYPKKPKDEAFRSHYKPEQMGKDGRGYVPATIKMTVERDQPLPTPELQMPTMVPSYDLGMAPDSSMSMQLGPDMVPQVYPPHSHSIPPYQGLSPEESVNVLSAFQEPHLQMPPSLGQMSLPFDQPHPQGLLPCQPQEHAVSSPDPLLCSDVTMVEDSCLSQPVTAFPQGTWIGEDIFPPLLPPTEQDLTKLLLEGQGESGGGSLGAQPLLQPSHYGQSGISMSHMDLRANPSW
Procedure, shortened: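 5 nM fluorescein tracer + 200 nM STAT protein; PBS pH 7.4, 0.01% BGG, 0.01% Tween-20, 2 mM DTT; shake 15 min, 1 h RT equilibrium; FP read; nonlinear fit for inhibition constants.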

SMILES | Ki [µM]
CC(=O)N1CC[C@H]2CC[C@@H](C(=O)NCc3ccccc3)N2C(=O)[C@@H](NC(=O)c2cc3cc(C(F)(F)P(=O)(O)O)ccc3[nH]2)C1 [Compound 335, ((2-(((5S,8S,10aR)-3-acetyl-8-(benzylcarbamoyl)-6-oxodecahydropyrrolo[1,2-a][1,5]diazocin-5-yl)carbamoyl)-1H-indol-5-yl)difluoromethyl)phosphonic acid] | > 10
CC(=O)N1CC[C@H]2CC[C@@H](C(=O)N[C@@H](C)c3ccccc3)N2C(=O)[C@@H](NC(=O)c2cc3cc(C(F)(F)P(=O)(O)O)ccc3[nH]2)C1 [Compound 337, ((2-(((5S,8S,10aR)-3-acetyl-6-oxo-8-(((S)-1-phenylethyl)carbamoyl)decahydropyrrolo[1,2-a][1,5]diazocin-5-yl)carbamoyl)-1H-indol-5-yl)difluoromethyl)phosphonic acid] | 1 to 10
CC(=O)N1CC[C@H]2CC[C@@H](C(=O)N[C@H](C)c3ccccc3)N2C(=O)[C@@H](NC(=O)c2cc3cc(C(F)(F)P(=O)(O)O)ccc3[nH]2)C1 [Compound 338, ((2-(((5S,8S,10aR)-3-acetyl-6-oxo-8-(((R)-1-phenylethyl)carbamoyl)decahydropyrrolo[1,2-a][1,5]diazocin-5-yl)carbamoyl)-1H-indol-5-yl)difluoromethyl)phosphonic acid] | > 10
CC(=O)N1CC[C@H]2CC[C@@H](C(=O)NC(C)(C)c3ccccc3)N2C(=O)[C@@H](NC(=O)c2cc3cc(C(F)(F)P(=O)(O)O)ccc3[nH]2)C1 [Compound 339, ((2-(((5S,8S,10aR)-3-acetyl-6-oxo-8-((2-phenylpropan-2-yl)carbamoyl)decahydropyrrolo[1,2-a][1,5]diazocin-5-yl)carbamoyl)-1H-indol-5-yl)difluoromethyl)phosphonic acid] | > 10
CC(=O)N1CC[C@H]2CC[C@@H](C(=O)NC3(c4ccccc4)CC3)N2C(=O)[C@@H](NC(=O)c2cc3cc(C(F)(F)P(=O)(O)O)ccc3[nH]2)C1 [Compound 340, ((2-(((5S,8S,10aR)-3-acetyl-6-oxo-8-((1-phenylcyclopropyl)carbamoyl)deca hydropyrrolo[1,2-a][1,5]diazocin-5-yl)carbamoyl)-1H-indol-5-yl)difluoromethyl)phosphonic acid] | > 10
CC(=O)N1CC[C@H]2CC[C@@H](C(=O)NC3(c4ccccc4)CCOCC3)N2C(=O)[C@@H](NC(=O)c2cc3cc(C(F)(F)P(=O)(O)O)ccc3[nH]2)C1 [Compound 341, ((2-(((5S,8S,10aR)-3-acetyl-6-oxo-8-((4-phenyltetrahydro-2H-pyran-4-yl)carbamoyl)decahydropyrrolo[1,2-a][1,5]diazocin-5-yl)carbamoyl)-1H-indol-5-yl)difluoromethyl)phosphonic acid] | 1 to 10
CC(=O)N1CC[C@H]2CC[C@@H](C(=O)N(Cc3ccccc3)C3CCCCC3)N2C(=O)[C@@H](NC(=O)c2cc3cc(C(F)(F)P(=O)(O)O)ccc3[nH]2)C1 [Compound 342, ((2-(((5S,8S,10aR)-3-acetyl-8-(benzyl(cyclohexyl)carbamoyl)-6-oxodecahydropyrrolo[1,2-a][1,5]diazocin-5-yl)carbamoyl)-1H-indol-5-yl)difluoromethyl)phosphonic acid] | 1 to 10
CC(=O)N1CC[C@H]2CC[C@@H](C(=O)N3CCc4cc(F)ccc4C3)N2C(=O)[C@@H](NC(=O)c2cc3cc(C(F)(F)P(=O)(O)O)ccc3[nH]2)C1 [Compound 344, ((2-(((5S,8,10aR)-3-acetyl-8-(6-fluoro-1,2,3,4-tetrahydroisoquinoline-2-carbonyl)-6-oxodecahydropyrrolo[1,2-a][1,5]diazocin-5-yl)carbamoyl)-1H-indol-5-yl)difluoromethyl)phosphonic acid] | > 10
CC(=O)N1CC[C@H]2CC[C@@H](C(=O)N3CCc4ccc(C(F)(F)F)cc4C3)N2C(=O)[C@@H](NC(=O)c2cc3cc(C(F)(F)P(=O)(O)O)ccc3[nH]2)C1 [Compound 358, ((2-(((5S,8S,10aR)-3-acetyl-6-oxo-8-(7-(trifluoromethyl)-1,2,3,4-tetrahydroisoquinoline-2-carbonyl)decahydropyrrolo[1,2-a][1,5]diazocin-5-yl)carbamoyl)-1H-indol-5-yl)difluoromethyl)phosphonic acid] | > 10
CC(=O)N1CC[C@H]2CC[C@@H](C(=O)N3Cc4ccccc4C3)N2C(=O)[C@@H](NC(=O)c2cc3cc(C(F)(F)P(=O)(O)O)ccc3[nH]2)C1 [Compound 359, ((2-(((5S,8S,10aR)-3-acetyl-8-(isoindoline-2-carbonyl)-6-oxodecahydropyrrolo[1,2-a][1,5]diazocin-5-yl)carbamoyl)-1H-indol-5-yl)difluoromethyl)phosphonic acid] | 0.1 to 1
CC(=O)N1CC[C@H]2CC[C@@H](C(=O)N(c3ccccc3)c3ccccc3)N2C(=O)[C@@H](NC(=O)c2cc3cc(C(F)(F)P(=O)(O)O)ccc3[nH]2)C1 [Compound 362, ((2-(((5S,8S,10aR)-3-acetyl-8-(diphenylcarbamoyl)-6-oxodecahydropyrrolo[1,2-a][1,5]diazocin-5-yl)carbamoyl)-1H-indol-5-yl)difluoromethyl)phosphonic acid] | 1 to 10

Other lines, results leading:

Ki [µM] | SMILES
1 to 10 | CC(=O)N1CC[C@H]2CC[C@@H](C(=O)N(C)Cc3ccccc3)N2C(=O)[C@@H](NC(=O)c2cc3cc(C(F)(F)P(=O)(O)O)ccc3[nH]2)C1 [Compound 336, ((2-(((5S,8S,10aR)-3-acetyl-8-(benzyl(methyl)carbamoyl)-6-oxodecahydropyrrolo[1,2-a][1,5]diazocin-5-yl)carbamoyl)-1H-indol-5-yl)difluoromethyl)phosphonic acid]
1 to 10 | CC(=O)N1CC[C@H]2CC[C@@H](C(=O)N3CCc4c(F)cccc4C3)N2C(=O)[C@@H](NC(=O)c2cc3cc(C(F)(F)P(=O)(O)O)ccc3[nH]2)C1 [Compound 343, ((2-(((5S,8S,10aR)-3-acetyl-8-(5-fluoro-1,2,3,4-tetrahydroisoquinoline-2-carbonyl)-6-oxodecahydropyrrolo[1,2-a][1,5]diazocin-5-yl)carbamoyl)-1H-indol-5-yl)difluoromethyl)phosphonic acid]
> 10 | CC(=O)N1CC[C@H]2CC[C@@H](C(=O)N3CCc4ccc(F)cc4C3)N2C(=O)[C@@H](NC(=O)c2cc3cc(C(F)(F)P(=O)(O)O)ccc3[nH]2)C1 [Compound 355, ((2-(((5S,8S,10aR)-3-acetyl-8-(7-fluoro-1,2,3,4-tetrahydroisoquinoline-2-carbonyl)-6-oxodecahydropyrrolo[1,2-a][1,5]diazocin-5-yl)carbamoyl)-1H-indol-5-yl)difluoromethyl)phosphonic acid]
> 10 | CC(=O)N1CC[C@H]2CC[C@@H](C(=O)N3CCc4cccc(F)c4C3)N2C(=O)[C@@H](NC(=O)c2cc3cc(C(F)(F)P(=O)(O)O)ccc3[nH]2)C1 [Compound 356, ((2-(((5S,8S,10aR)-3-acetyl-8-(8-fluoro-1,2,3,4-tetrahydroisoquinoline-2-carbonyl)-6-oxodecahydropyrrolo[1,2-a][1,5]diazocin-5-yl)carbamoyl)-1H-indol-5-yl)difluoromethyl)phosphonic acid]
> 10 | CC(=O)N1CC[C@H]2CC[C@@H](C(=O)N3CCc4ccc(C)cc4C3)N2C(=O)[C@@H](NC(=O)c2cc3cc(C(F)(F)P(=O)(O)O)ccc3[nH]2)C1 [Compound 357, ((2-(((5S,8S,10aR)-3-acetyl-8-(7-methyl-1,2,3,4-tetrahydroisoquinoline-2-carbonyl)-6-oxodecahydropyrrolo[1,2-a][1,5]diazocin-5-yl)carbamoyl)-1H-indol-5-yl)difluoromethyl)phosphonic acid]
> 10 | CC(=O)N1CC[C@H]2CC[C@@H](C(=O)N(C)c3ccccc3)N2C(=O)[C@@H](NC(=O)c2cc3cc(C(F)(F)P(=O)(O)O)ccc3[nH]2)C1 [Compound 360, ((2-(((5S,8S,10aR)-3-acetyl-8-(methyl(phenyl)carbamoyl)-6-oxodecahydropyrrolo[1,2-a][1,5]diazocin-5-yl)carbamoyl)-1H-indol-5-yl)difluoromethyl)phosphonic acid]
> 10 | CC(=O)N1CC[C@H]2CC[C@@H](C(=O)Nc3ccccc3)N2C(=O)[C@@H](NC(=O)c2cc3cc(C(F)(F)P(=O)(O)O)ccc3[nH]2)C1 [Compound 361, ((2-(((5S,8S,10aR)-3-acetyl-6-oxo-8-(phenylcarbamoyl)decahydropyrrolo [1,2-a][1,5]diazocin-5-yl)carbamoyl)-1H-indol-5-yl)difluoromethyl)phosphonic acid]
> 10 | O=C(N[C@H]1CCC[C@H]2CC[C@@H](C(=O)N3CCc4ccccc4C3)N2C1=O)c1cc2cc(C(F)(F)P(=O)(O)O)ccc2[nH]1 [Compound 363, (difluoro(2-(((3S,6S,9aS)-5-oxo-3-(1,2,3,4-tetrahydroisoquinoline-2-carbonyl)octahydro-1H-pyrrolo[1,2-a]azepin-6-yl)carbamoyl)-1H-indol-5-yl)methyl)phosphonic acid]
